From the supplement of paper PMC10307832

Columns and labels:
Assay in all cases: relative viability (nuclei count vs DMSO), 5 days (fraction); higher = more cells survive
[1] = compound: Cc1ccc(NC(=O)c2ccc(CN3CCN(C)CC3)cc2)cc1Nc1nc(-c2cccnc2)cs1 [Masitinib] + Cc1nc(NC(=O)N2CCC[C@H]2C(N)=O)sc1-c1ccnc(C(C)(C)C(F)(F)F)c1 [Alpelisib] (partner 2 µM)
Summary of the method: (§1)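 Nuclei were stained with Hoechst during a one-step fixation (final 0.05% Triton X-100, 1% formaldehyde, 1 ug/ml Hoechst) carried out 5 days after dosing, then counted on 4× images. The cells, lung cancer lines in 1536-well plates, had been dosed by pin tool the day after seeding with one drug alone or a fixed anchor-drug dose plus five library-drug doses (not always all listed) in √10 steps. Relative viability is the nuclei count in treated wells divided by that in vehicle wells, and each value is the median of duplicate plates.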

[2] = compound: CC1=CC(=CC=C1)NC2=NC(=CS2)C3=CC=NC=C3 + CS(=O)(=O)CCNCc1ccc(-c2ccc3ncnc(Nc4ccc(OCc5cccc(F)c5)c(Cl)c4)c3c2)o1 [Lapatinib] (partner 2 µM)
Summary of the method: as §1

[3] = compound: Cc1ccc(NC(=O)c2ccc(CN3CCN(C)CC3)cc2)cc1Nc1nc(-c2cccnc2)cs1 [Masitinib] + CS(=O)(=O)CCNCc1ccc(-c2ccc3ncnc(Nc4ccc(OCc5cccc(F)c5)c(Cl)c4)c3c2)o1 [Lapatinib] (partner 2 µM)
Summary of the method: as §1

[4] = compound: CC1=CC(=CC=C1)NC2=NC(=CS2)C3=CC=NC=C3 + CS(=O)(=O)N1CCN(Cc2cc3nc(-c4cccc5[nH]ncc45)nc(N4CCOCC4)c3s2)CC1 [Pictilisib] (partner 1 µM)
Summary of the method: as §1

Cell Line	relative viability ([1]; first compound 0.01 µM)	relative viability ([1]; first compound 0.03162 µM)	relative viability ([1]; first compound 0.1 µM)	relative viability ([1]; first compound 0.3162 µM)	relative viability ([1]; first compound 1 µM)	relative viability ([2]; first compound 0.08 µM)	relative viability ([2]; first compound 0.253 µM)	relative viability ([2]; first compound 0.8 µM)	relative viability ([2]; first compound 2.53 µM)	relative viability ([2]; first compound 8 µM)	relative viability ([3]; first compound 0.01 µM)	relative viability ([3]; first compound 0.03162 µM)	relative viability ([3]; first compound 0.1 µM)	relative viability ([3]; first compound 0.3162 µM)	relative viability ([3]; first compound 1 µM)	relative viability ([4]; first compound 0.08 µM)	relative viability ([4]; first compound 0.253 µM)	relative viability ([4]; first compound 0.8 µM)	relative viability ([4]; first compound 2.53 µM)	relative viability ([4]; first compound 8 µM)
HCC-44	0.748	0.752	0.88	0.69	0.834	0.757	0.755	0.831	0.777	0.812	0.911	0.98	1.05	0.856	0.951	0.423	0.429	0.462	0.485	0.486
HCC-827	0.91	0.994	1.1	0.928	0.997	0.204	0.187	0.191	0.187	0.179	0.198	0.189	0.19	0.168	0.201	0.72	0.875	1.12	0.895	0.812
NCI-H2405	0.838	0.945	0.896	0.737	0.802	0.853	1	0.919	0.936	0.813	0.921	1.09	0.953	0.946	0.952	0.315	0.433	0.332	0.523	0.342
PC-3 [JPC-3]	1.01	1.03	0.978	1.03	1.01	0.36	0.375	0.453	0.362	0.467	0.474	0.416	0.462	0.367	0.422	0.575	0.609	0.617	0.629	0.719
NCI-H1666	0.92	1.05	0.943	0.706	0.99	0.245	0.24	0.256	0.283	0.241	0.677	0.657	0.706	0.428	0.557	0.326	0.358	0.351	0.329	0.3
HARA	0.798	0.621	0.809	0.727	0.822	0.483	0.641	0.509	0.474	0.527	0.582	0.78	0.855	0.675	0.719	0.343	0.354	0.367	0.21	0.374
NCI-H1651	0.841	1.01	0.99	0.947	1	0.721	0.704	0.865	0.713	0.781	0.831	0.849	0.829	0.908	0.854	0.476	0.651	0.749	0.465	0.588
NCI-H1395	1.12	1.01	1.1	1.16	1.09	0.882	0.733	0.982	0.761	0.818	1.37	1.16	1.39	0.982	0.81	0.569	0.602	0.531	0.627	0.697
